Results on one compound are retold here after ChEMBL document CHEMBL4152336, “Optimization of the first small-molecule relaxin/insulin-like family peptide receptor (RXFP1) agonists: Activation results in an antifibrotic gene expression profile” (Eur J Med Chem, 2018).

Each structure is given as a SMILES string. In brackets after ≈: the same amount, converted by molar mass. Activity calls are given as the source filed them. No cut-off for these calls is given here.

Data set [1] has as its system Mus musculus. Put plainly: Toxicity in C57/BL6 mouse assessed as body weight at 300 mg/kg, po treated for 5 days measured at day 2 post last dose (reference value: 19.8 +/- 2.3 g). In kind it is organism-based. Conditions: in vivo, 120 h.
A short description of data set [2]: Aqueous kinetic solubility of the compound in PBS by shake-flask method. It is filed as physicochemical. Particulars: PBS; read-out: Kinetic_solubility.
A short description of data set [3]: Drug level in C57/BL6 mouse heart at 3 mg/kg, iv after 0.08 hrs. In kind it is ADME, organism-based. Particulars: in vivo.
The species named for data set [4] is Homo sapiens. As to the kind of experiment: Down regulation of TGFB1 gene expression in human HSC at 5 uM after 24 to 72 hrs by RT-qPCR analysis. In kind it is functional. On the technique in general: In qPCR the cycle at which signal appears reflects the starting amount.
Data set [5] concerns Mus musculus. As to the kind of experiment: Toxicity in C57/BL6 mouse at 3 to 30 mg/kg, iv. It is filed as organism-based. Particulars: in vivo.
Data set [6] has as its system Mus musculus. Put plainly: Toxicity in C57/BL6 mouse assessed as body weight at 90 mg/kg, po treated for 5 days measured at day 2 post last dose (reference value: 19.8 +/- 2.3 g). It is filed as organism-based. Conditions: in vivo, 120 h.
Data set [7] can be described thus: Drug level in C57/BL6 mouse heart at 3 mg/kg, iv after 3 hrs. In kind it is ADME, organism-based. Conditions: in vivo.
In data set [8] the test system is Mus musculus. As to the kind of experiment: Toxicity in C57/BL6 mouse assessed as body weight at 90 mg/kg, po treated for 5 days measured at day 9 post last dose (reference value: 20.7 +/- 2.9 g). It is filed as organism-based. Conditions: in vivo, 120 h.
Data set [9] deals with Mus musculus. As to the kind of experiment: Toxicity in C57/BL6 mouse assessed as body weight at 300 mg/kg, po treated for 5 days measured at day 7 post last dose (reference value: 20.6 +/- 2.9 g). It is filed as organism-based. Conditions: in vivo, 120 h.
Data set [10] is filed under the species Homo sapiens. As to the kind of experiment: Upregulation of MMP1 gene expression in human HSC at 5 uM after 24 to 72 hrs by RT-qPCR analysis. In kind it is functional.
For data set [11], the system named is Mus musculus. Put plainly: Toxicity in C57/BL6 mouse assessed as body weight at 3000 mg/kg, po treated for 5 days measured at day 2 post last dose (reference value: 19.8 +/- 2.3 g). Particulars: in vivo, 120 h. In kind it is organism-based.
Data set [12] has as its system Mus musculus. Put plainly: Toxicity in C57/BL6 mouse assessed as body weight at 300 mg/kg, po treated for 5 days measured at day 1 post last dose (reference value: 20.3 +/- 2.6 g). In kind it is organism-based. Particulars: in vivo, 120 h.
Data set [13] relates to Mus musculus. As to the kind of experiment: Toxicity in C57/BL6 mouse assessed as body weight at 3000 mg/kg, po treated for 5 days measured at day 9 post last dose (reference value: 20.7 +/- 2.9 g). It is filed as organism-based. Particulars: in vivo, 120 h.
The subject of data set [14] is Mus musculus. Put plainly: Toxicity in C57/BL6 mouse assessed as body weight at 300 mg/kg, po treated for 5 days measured at day 8 post last dose (reference value: 20.6 +/- 2.8 g). It is filed as organism-based. Conditions: in vivo, 120 h.
The species named for data set [15] is Homo sapiens. As to the kind of experiment: Down regulation of ACTA2 gene expression in human HSC at 5 uM after 24 to 72 hrs by RT-qPCR analysis. It is filed as functional.
For data set [16], the system named is Mus musculus. As to the kind of experiment: Toxicity in C57/BL6 mouse assessed as body weight at 300 mg/kg, po treated for 5 days measured at day 9 post last dose (reference value: 20.7 +/- 2.9 g). It is filed as organism-based. Conditions: in vivo, 120 h.
Data set [17] is described as follows: Drug level in C57/BL6 mouse heart at 30 mg/kg, po after 7 hrs. It is filed as ADME, organism-based. Particulars: in vivo.

On to `CC(C)Oc1ccccc1C(=O)Nc1ccccc1C(=O)Nc1cccc(S(=O)(=O)C(F)(F)F)c1`, for which the Activity in the data set with Mus musculus [1] was 20.1 g; in the data set with Mus musculus [5], “Non-Toxic”; with Mus musculus [6], 19.9 g; in the data set on Mus musculus [8] it was 20.8 g; with Mus musculus [9], 20.9 g; in the data set with Mus musculus [11], 20.6 g. Moreover, the Activity turned out to be 20.4 g with Mus musculus [12], 21.2 g in the data set on Mus musculus [13], 21.2 g in the data set with Mus musculus [14] and 21 g in the data set on Mus musculus [16]. Further, in [2], the solubility kinetic was found to be 7 µM (≈ 3.55 µg/mL). For the same compound, the Drug uptake in data set [3] was 4.12 µmol/kg; in [7], 0.6 µmol/kg; in data set [17], 0.067 µmol/kg. Further, the result in the data set listed under Homo sapiens [4], in the data set listed under Homo sapiens [10] and in the data set listed under Homo sapiens [15] was Active.
